Data: publication PMC9402538, “Rational design of a sensitivity-enhanced tracer for discovering efficient APC–Asef inhibitors” (Nature Communications, 2022)
“And” between values parts separate entries of the source, which are not always exact repeats. Identical values can stand only once. Like-named read-outs stand apart in the source and are kept apart here. Each block holds one molecule with its values, some of them ahead of it. Where a SMILES comes first, the peptide text is derived from it. The star is where a group is joined. Picolinoyl = O=C(c1ccccn1)*; Bz = O=C(c1ccccc1)*

Experiments:
APC = molecular target: T1, APC (Homo sapiens, UniProt P25054); experiment: FP competitive assay using tracer 1; type: binding; conditions: for FP(mp): Tracer 1, triplicate raw readings
T1 sequence (P25054 303-739): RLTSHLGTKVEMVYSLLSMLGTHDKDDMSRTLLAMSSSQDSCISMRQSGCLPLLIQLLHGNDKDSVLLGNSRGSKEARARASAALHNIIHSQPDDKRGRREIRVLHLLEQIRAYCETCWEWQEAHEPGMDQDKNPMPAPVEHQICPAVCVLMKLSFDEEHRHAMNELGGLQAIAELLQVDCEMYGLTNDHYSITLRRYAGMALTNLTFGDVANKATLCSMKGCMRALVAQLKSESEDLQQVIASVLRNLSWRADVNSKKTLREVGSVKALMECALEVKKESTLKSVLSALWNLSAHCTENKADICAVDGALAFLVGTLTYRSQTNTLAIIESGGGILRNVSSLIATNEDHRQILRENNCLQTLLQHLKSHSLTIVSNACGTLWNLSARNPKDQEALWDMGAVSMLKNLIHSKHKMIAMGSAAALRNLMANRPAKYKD
Method: In our previous study, we established an FP assay for screening APC–Asef inhibitors using FITC-labeled tracer 1 (Ac–^176[…][FITC]^195–NH2)[16]. […]. However, their Kd values measured by isothermal titration calorimetry (ITC) actually vary up to more than 20 times[16],[17]. […].
FITC-labeled tracer peptides were obtained from Changzhou Kanglong Biotech Ltd. (Changzhou, Jiangsu, China). […]. The FP signal changes upon tracer binding were measured after 1.5 h of incubation using a Synergy neo microplate reader (BioTek Instruments, Inc.) and plotted against the protein concentration. The corresponding EC50 values were generated by fitting the curves with a nonlinear regression model. […]. To make a working solution, APC (303–739) was diluted in FP buffer (50 mM HEPES, pH 7.5, 300 mM NaCl, 1 mM EDTA, 1 mM DTT). […] The FP signals were measured after 1.5 h of incubation at room temperature using a Synergy neo microplate reader. Three controls were included on each plate, i.e., blank (without protein and tracer), 100% inhibition (free tracer only), and 0% inhibition (protein/tracer complex only) controls. All experiments were performed in triplicate. The IC50 values of peptides were calculated by nonlinear regression analysis using GraphPad Prism 7.0 software.

APC (303–739) = molecular target: T2, APC (303–739) (Homo sapiens, UniProt P25054); experiment: FP competitive assay using tracer 7; type: binding; conditions: for FP(mp): Tracer 7, replicate wells
T2 sequence (P25054 303-739): T1 sequence (P25054 303-739)
Method: FITC-labeled tracer peptides were obtained from Changzhou Kanglong Biotech Ltd. (Changzhou, Jiangsu, China). […]. The FP signal changes upon tracer binding were measured after 1.5 h of incubation using a Synergy neo microplate reader (BioTek Instruments, Inc.) and plotted against the protein concentration. The corresponding EC50 values were generated by fitting the curves with a nonlinear regression model. […]. To make a working solution, APC (303–739) was diluted in FP buffer (50 mM HEPES, pH 7.5, 300 mM NaCl, 1 mM EDTA, 1 mM DTT). The diluted APC protein (91 μL) was combined with a serial dilution of peptides (4 μL) and incubated at room temperature for 1 h, followed by the addition of 5 μL of 400 nM tracer 7. The FP signals were measured after 1.5 h of incubation at room temperature using a Synergy neo microplate reader. Three controls were included on each plate, i.e., blank (without protein and tracer), 100% inhibition (free tracer only), and 0% inhibition (protein/tracer complex only) controls. All experiments were performed in triplicate. The IC50 values of peptides were calculated by nonlinear regression analysis using GraphPad Prism 7.0 software.

IC50 (APC; Supplementary Table 4, read-out: IC50, Tracer 1): 750 ± 180 nM | FP(mp) (APC; Conc. 0.05 μM): 172 mp and 170 mp | FP(mp) (APC; Conc. 0.10 μM): 168 mp | FP(mp) (APC; Conc. 0.20 μM): 166 mp and 163 mp and 165 mp | FP(mp) (APC; Conc. 0.39 μM): 156 mp and 155 mp and 153 mp | FP(mp) (APC; Conc. 0.78 μM): 126 mp and 125 mp and 122 mp | FP(mp) (APC; Conc. 1.56 μM): 80 mp and 79 mp and 78 mp | FP(mp) (APC; Conc. 3.13 μM): 59 mp and 55 mp | FP(mp) (APC; Conc. 6.25 μM): 52 mp and 50 mp | FP(mp) (APC; Conc. 12.50 μM): 53 mp and 48 mp and 50 mp | FP(mp) (APC; Conc. 25.00 μM): 51 mp and 48 mp and 47 mp | FP(mp) (APC; Conc. 50.00 μM): 51 mp and 48 mp and 47 mp | FP(mp) (APC; Conc. 100.00 μM): 51 mp and 53 mp | FP(mp) (APC; Conc. 200.00 μM): 51 mp and 47 mp and 50 mp | FP(mp) (APC; Conc. 400.00 μM): 53 mp and 50 mp and 47 mp | IC50 (APC (303–739); Repeat 1, Table 3 source data, read-out: IC50(μM) Repeat 1): 1.04 µM | IC50 (APC (303–739); Repeat 2, Table 3 source data, read-out: IC50(μM) Repeat 2): 0.958 µM | IC50 (APC (303–739); Repeat 3, Table 3 source data, read-out: IC50(μM) Repeat 3): 0.93 µM | FP(mp) (APC (303–739); Conc. 0.0061 μM): 305 mp and 310 mp and 308 mp | FP(mp) (APC (303–739); Conc. 0.0122 μM): 307 mp and 310 mp (2×) | FP(mp) (APC (303–739); Conc. 0.0244 μM): 298 mp and 303 mp and 300 mp | FP(mp) (APC (303–739); Conc. 0.05 μM): 293 mp and 300 mp and 297 mp | FP(mp) (APC (303–739); Conc. 0.10 μM): 290 mp and 286 mp and 291 mp | FP(mp) (APC (303–739); Conc. 0.20 μM): 266 mp and 274 mp and 271 mp | FP(mp) (APC (303–739); Conc. 0.39 μM): 242 mp and 240 mp and 236 mp | FP(mp) (APC (303–739); Conc. 0.78 μM): 199 mp (2×) and 200 mp | FP(mp) (APC (303–739); Conc. 1.56 μM): 160 mp and 157 mp and 158 mp | FP(mp) (APC (303–739); Conc. 3.13 μM): 119 mp (2×) and 121 mp | FP(mp) (APC (303–739); Conc. 6.25 μM): 94 mp and 89 mp and 91 mp | FP(mp) (APC (303–739); Conc. 12.50 μM): 80 mp and 77 mp and 78 mp | FP(mp) (APC (303–739); Conc. 25.00 μM): 69 mp and 66 mp and 65 mp | FP(mp) (APC (303–739); Conc. 50.00 μM): 61 mp and 57 mp and 60 mp | IC50 (APC (303–739); mean of 3 repeats, Table 3 source data, read-out: IC50(μM) mean): 0.976 µM
Structure (SMILES): CC(C)C[C@H](NC(=O)[C@H](CO)NC(=O)[C@H](CCC(=O)O)NC(=O)CNC(=O)[C@H](C)NC(=O)c1ccccn1)C(=O)N[C@@H](Cc1ccc(O)cc1)C(=O)N[C@@H](CCC(=O)O)C(N)=O [MAI-512] (Picolinoyl-AGESLYE-NH2)

Structure (SMILES): CC(C)C[C@H](NC(=O)[C@H](CO)NC(=O)[C@H](CCC(=O)O)NC(=O)CNC(=O)[C@H](C)NC(=O)c1ccccc1)C(=O)N[C@@H](Cc1c[nH]c2ccccc12)C(=O)N[C@@H](CCC(=O)O)C(N)=O [MAI-452] (Bz-AGESLWE-NH2)
IC50 (APC): 440 ± 150 nM | IC50 (APC (303–739); IC50, Tracer 7, Supplementary Table 4): 0.17 ± 0.01 µM
